Measurements taken from patent US20090163481A1, “PPAR-DELTA LIGANDS AND METHODS OF THEIR USE” (priority 2007, published 2009).
Where two headings read alike, the source gives them in different places.

Tests used:
PPARγ LBD = molecular target: T1, PPARγ LBD (Homo sapiens, UniProt P37231); experiment: PPARγ LBD binding and transactivation (ciglitazone competition); assay type: cell-based; settings: data not shown
T1 construct: expressed in transfected cells; host or cells: U2-OS (inferred from the general testing procedure)
T1 sequence (P37231 238-503 limits assumed): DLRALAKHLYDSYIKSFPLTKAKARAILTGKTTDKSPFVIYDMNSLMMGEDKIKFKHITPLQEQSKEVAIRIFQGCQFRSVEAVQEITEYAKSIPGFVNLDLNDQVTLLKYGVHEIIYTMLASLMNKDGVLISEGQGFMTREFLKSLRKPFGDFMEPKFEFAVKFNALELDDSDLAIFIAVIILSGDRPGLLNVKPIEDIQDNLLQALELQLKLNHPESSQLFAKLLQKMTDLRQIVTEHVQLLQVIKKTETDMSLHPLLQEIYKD
Description: Based on the cellular and molecular data generated, treatment of prostate cancer cells with SR 13904 attenuates a number of pro-tumorigenic activities that are likely to be associated with PPARδ. Furthermore, this nuclear receptor is now believed to be a master regulator of nuclear receptors, including both PPARγ and PPARα, and as such the inhibition of PPARδ activity modulates the other target transcription factors.

A549 = experiment: Alamar Blue proliferation assay, A549; assay type: cell-based; settings: Homo sapiens, 96 h; A549, 0-40 μM, 0.5% serum, 4 days; read-out: IC50 for growth inhibition
Method: (§1) The effect of SR13904 on the proliferation of these cell lines was determined by an Alamar Blue assay. Exponentially growing cells were treated with a range of SR13904 concentrations (0-40 μM; in 0.5% serum) over 4 days and proliferation curves were determined. The IC50 values for growth inhibition by SR13904 for each cell line were determined. […] In addition, colony formation assays with SR13904 were performed with both A549 and Huh7 cells.

Huh7 = experiment: Alamar Blue proliferation assay, Huh7; assay type: cell-based; settings: Homo sapiens, Huh-7, 96 h; Huh7, 0-40 μM, 0.5% serum, 4 days; read-out: IC50 for growth inhibition
Method: as §1

[1] = molecular target: T2, ligand binding domain of PPAR delta (Homo sapiens, UniProt Q03181); experiment: LANTHA SCREEN TR-FRET PPARδ Competitive Binding Assay
T2 construct: purchased Invitrogen
T2 sequence (Q03181 211-439 limits assumed): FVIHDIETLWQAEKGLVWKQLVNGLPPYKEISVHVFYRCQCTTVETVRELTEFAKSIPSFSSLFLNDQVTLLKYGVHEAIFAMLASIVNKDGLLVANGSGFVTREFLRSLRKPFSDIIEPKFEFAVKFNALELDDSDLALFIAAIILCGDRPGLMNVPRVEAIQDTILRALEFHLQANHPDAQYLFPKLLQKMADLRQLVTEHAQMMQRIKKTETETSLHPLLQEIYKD
Method: (§2) The LANTHA SCREEN™ TR-FRET PPARδ Competitive Binding Assay was conducted for a variety of compounds according to the instructions provided by the manufacturer (Invitrogen). In addition, proliferation assays were conducted. In Table 2, “Prolif IC50” is the concentration that inhibits cell viability (or growth) by 50% relative to a vehicle control, and “TR-F binding IC50 (μM)” is the concentration that competes binding by a labeled pan-agonist to the ligand binding domain of PPAR delta, by 50%.

[2] = Proliferation assay of Table 2 (cell line not stated); assay type: cell-based; settings: concentration that inhibits cell viability (or growth) by 50% relative to vehicle control; read-out: Prolif IC50
Method: as §2

PC-3 cells = experiment: Western analysis of cyclin D1 and CDK2 in post-confluent PC-3 cells; assay type: cell-based, human; settings: post-confluent PC-3, 48 h, SR 13904 10 μM, vehicle- and VLDL-treated cells
Method: Referring to FIG. 4, PC-3 cells were brought to confluence and cultured in serum-free OptiMem culture medium (Gibco) 2 h before treatment with a combination of VLDL (2 μg/ml+2 μg/ml LPL) and/or SR 13904 (10 μM) and incubated for an additional 48 h. Standard Western blotting was performed. Glyceraldehyde 3 phosphate dehydrogenase (GAPDH) was used a control for both blots.

A549 cells = experiment: Western blotting of cell-cycle regulatory proteins in A549 cells; assay type: cell-based, human; settings: A549, 20 μM, 24 and 48 h, 0.5% FBS
Method: Referring now to FIG. 5C, SR13904 treatment of A549 human NSCLC cell line modulates cell cycle protein expression patterns toward an inhibitory phenotype. Given the flow cytometry results described above, the effect of SR13904 on the expression of some key cell-cycle regulatory proteins involved in G1 and S phases was investigated. A549 cells were grown in phenol-red-free DMEM+0.5% charcoal-treated FBS and exposed to the ligand. […]

MMP-9 = experiment: Gelatin zymogel analysis of MMP-9 activity in PC-3 cells; assay type: cell-based, human; settings: PC-3, 16 h; VLDL 2 μg/ml + LPL 2 μg/ml and/or 10 μM SR13904
Method: Zymogel studies were performed to determine whether PPARδ could regulate MMP-9 expression/activity in prostate cancer cells. Over-expression of MMP-9 is directly linked to metastatic prostate cancer, at least in part through mitogen/extracellular-signal-regulated kinase kinase 5/extracellular signal-regulated kinase-5 (MEK5/ERK5). An increase in MMP-9 activity in VLDL-treated PC-3 cells was observed (see FIG. 7), and this activation was attenuated by co-incubation with SR 13904.
Referring to FIG. 7, PC-3 cultures were treated with ligands (2 μg/ml VLDL+2 μg/ml LPL and/or 10 μM SR13904) for 16 h prior to harvesting of cells (for cell counting) and collection and concentration of conditioned media. Loading was based on equal cell numbers, corresponding closely to equal loading volumes.

Akt1 = experiment: Western analysis of phosphorylated Akt1 in growth factor-deprived PC-3 cultures; assay type: cell-based, human; settings: PC-3, 48 h growth factor withdrawal; VLDL 2 μg/ml + LPL 2 μg/ml and/or 10 μM SR13904
Method: The ability of SR 13904 to regulate the cell survival Akt1 signaling pathway was assessed. PC-3 cultures were exposed to apoptosis-inducing growth factor deprivation and harvested for Western analysis of phosphorylated Akt1 and total PTEN protein. PTEN is known to inhibit the Akt1 pathway at the level of PI3-kinase. […] Subsequent studies confirmed this conclusion.
Referring to FIG. 8, PC-3 cells were exposed to 48 h of growth factor withdrawal with and without VLDL SR 13904 (2 μg/ml VLDL+2 μg/ml LPL and/or 10 μM SR13904). Standard western analysis for phospho-serine 473, phospho-tyrosine 308, and PTEN were performed. GAPDH was used as a control.

interference with ciglitazone binding to PPARγ LBD and transactivation (PPARγ LBD): interfere with ciglitazone binding | IC50 (A549): 8 to 10 µM | IC50 (Huh7): 8 to 10 µM | IC50 ([1]; competes binding by a labeled pan-agonist by 50%, * = determined by approximation from a semi log graph, read-out: TR-F binding IC50): 2.4 µM | IC50 ([1]; repeat determination of TR-F binding IC50, read-out: repeat TR-F): 2.1 µM
SMILES: Cc1cc(SCc2sc(-c3cccc4ccccc34)nc2C)ccc1OCC(=O)O [SR 13904]
IC50 [2]: 12 µM | CDK2 protein levels (PC-3 cells; VLDL 2 μg/ml + LPL 2 μg/ml): decreased | cyclin D1 protein levels (PC-3 cells): decreased | levels of cyclin E, p21, and p27 (A549 cells): little or no effect | steady state levels of CDK2, CDK4, cyclin D1, and cyclin A proteins (A549 cells): decreased | MMP-9 activity (MMP-9): attenuated | phosphorylation of serine 473 and tyrosine 308 on the Akt1 protein (Akt1): completely abolished
